Measurements taken from patent US9642875B2, “Compounds and their effects on appetite control and insulin sensitivity” (priority 2012, dated 2017).
“Also recorded” adds a separate entry of the source. Where two headings read alike, the source gives them in different places.

What was measured:
[1] = tested on: Bifidobacterium spp (Bif164); assay: faecal batch culture fermentation with fluorescent in situ hybridisation; format: cell-based
Description: (§1) Faecal samples were obtained from three healthy human volunteers (one female and two males; age 30-50 years; BMI 25-31). Volunteers were excluded if they suffered from any gastrointestinal disorder (e.g. ulcerative colitis, Crohn's disease, irritable bowel syndrome, peptic ulcers and cancer) and/or had taken antibiotics in the six months preceding sample donation. Samples were kept under anaerobic conditions (10% H2, 10% CO2 and 80% N2) and used within a maximum of 30 minutes following collection. Samples were diluted 1/10 w/w in anaerobic PBS (0.1 mol/1 phosphate buffer solution, pH 7.4) and homogenised in a stomacher (Stomacher 400, Seward, West Sussex, UK) for 2 minutes at normal speed.
Sterile batch culture fermenters (150 ml working volume) were set up in parallel and aseptically filled with 135 ml pre-reduced, sterile basal culture medium (peptone water 2 g/1 (Oxoid), yeast extract 2 g/1 (Oxoid, Basingstoke, UK), NaCl 0.1 g/l, K2HPO4 0.04 g/l, KH2PO4 0.04 g/l, MgSO4.7H2O 0.01 g/l, CaCl2.6H2O 0.01, NaHCO3 2 g/l, Tween 80 2 ml (BDH, Poole, UK), haemin 0.05 g/1, vitamin K1 10 cysteine.HCl 0.5 g/1, bile salts 0.5 g/1). The fermenters were gassed overnight with O2 free N2. Propionate inulin ester and inulin control substrates ( 1/10 w/v) were added to their respective fermenters just prior to the addition of the faecal slurry. […]

[2] = format: in vivo, human
Description: Twenty healthy subjects (15 males and 5 females) were recruited for the food intake investigation. The mean (±SEM) age, weight and body mass index (BMI) was 31±2 years, 75.0±3.0 kg and 25.4±0.8 kg/m^2, respectively.
(§2) The inclusion criteria for the investigation were a BMI of 20 to 35 kg/m^2 and 21 to 65 years of age.
The study was performed in a randomized, double-blind, crossover manner, with each subject studied on two occasions >4 days apart. […] The amount of food was quantified preprandially and postprandially, and energy intake was calculated. […] In addition, VAS were also completed to assess the palatability of the standardized breakfast.
Differences in energy intake and incremental area under the curve (iAUC) for plasma hormone levels and VAS between trials were assessed using Paired Student's t tests. […] Significant effects were followed up by post hoc comparisons (Dunnett). P values<0.05 were considered statistically significant. Data are presented as means±SEM.

[3] = Description: Healthy men and women aged 40-65 years, with a BMI of 25-40 kg/m^2 were recruited from the general public. Potential subjects were excluded if they had clinically significant illnesses (including type 1 or type 2 diabetes), were taking medication known to affect appetite and/or body weight, a weight loss of 3 kg or greater in the preceding two months, smoking, substance abuse, psychiatric illness, restrained eating (Dutch eating behavior questionnaire: male score >2.25; female score >2.80), and any abnormalities detected on physical examination, electrocardiography, or screening blood tests (measurement of complete blood count, electrolytes, fasting glucose, thyroid function and liver function). Women were ineligible if they were pregnant or breast-feeding. […] The study was carried out in accordance with the Declaration of Helsinki.
The study was conducted in a randomized, double-blind, placebo-controlled, parallel design. Two-day study visits were required at baseline (week 0) and after 24 weeks of dietary supplementation. On the day prior to each study visit, subjects were asked to consume a standard evening meal, fast overnight from 22:00 and to avoid strenuous physical activity and alcohol. All study visits commenced between 08:00 and 09:00. […] The dietary supplement was supplied to subjects in ready-to-use sachets and they were instructed to mix the contents into their normal diet once a day during the 24 week treatment period. All subjects were instructed to maintain their usual dietary and activity habits during the intervention period. […] After 8 and 16 weeks of the intervention period, subjects were invited to attend follow-up visits to record body weight and monitor compliance and gastrointestinal side-effects. After 24 weeks, measurements taken at baseline were repeated. Subjects returned all their used and unused sachets to estimate compliance. Symptom diary was also collected over the period of the study.
At study visits, a cannula was inserted into an antecubital vein and baseline blood samples were collected at −10 and 0 min to assess plasma concentrations of glucose, insulin, PYY and GLP-1. Following the 0 min sample, subjects were served a standardized breakfast (398 kcal; 71.2 g CHO, 7.9 g fat, 10.3 g protein). […] Postprandial blood samples were taken at 15, 30, 60, 90, 120, 180, 240 and 300 min and collected into heparin-coated tubes containing 0.2 ml of aprotinin (Bayer, UK). GLP-1- and PYY-like immunoreactivity was measured using specific and sensitive in-house radioimmunoassays. Insulin-like immunoreactivity was measured using an ultra-sensitive human insulin radioimmunoassay (Millipore) and plasma glucose was measured using an Abbott Architect ci8200 analyser (Abbott Diagnostics, USA). At 300 min subjects were offered a buffet lunch with food served in excess and subjects were asked to eat until they were comfortably full. The amount of food was quantified and energy intake calculated. Subjective hunger, satiety, and nausea were monitored with the use of 100 mm visual analog scales (VAS). Subjects were asked to complete the VAS before each blood sample. In addition, breath H2 was measured at 0, 60, 120, 180, 240 and 300 min (Bedfont Scientific, Kent UK) in a subset of each group (9 in the propionate ester group, 8 in the inulin control group).
Body composition was assessed using magnetic resonance imaging (MRI) and spectroscopy (MRS). […] Body weight was measured in all subjects to the nearest 0.1 kg (TBF-300, Tanita) and taken while subjects were wearing light clothing.

[4] = tested on: Atopobium cluster (Ato291); assay: faecal batch culture fermentation with fluorescent in situ hybridisation; format: cell-based; settings: between 10 and 34 h
Description: as §1
(§3) Sterile batch culture fermenters (150 ml working volume) were set up in parallel and aseptically filled with 135 ml pre-reduced, sterile basal culture medium (peptone water 2 g/1 (Oxoid), yeast extract 2 g/1 (Oxoid, Basingstoke, UK), NaCl 0.1 g/l, K2HPO4 0.04 g/l, KH2PO4 0.04 g/l, MgSO4.7H2O 0.01 g/l, CaCl2.6H2O 0.01, NaHCO3 2 g/l, Tween 80 2 ml (BDH, Poole, UK), haemin 0.05 g/1, vitamin K1 10 cysteine.HCl 0.5 g/1, bile salts 0.5 g/1). The fermenters were gassed overnight with O2 free N2. […] A substrate-free vessel was set up for each volunteer as the negative control.

[5] = tested on: Bacteroides/Prevotella (Bac303); assay: as above; format: cell-based; settings: all sampling points
Description: as §1, §3

[6] = format: in vivo, human; settings: 10 g, 24 hour pooled urine, n=5
Description: The mean (±SEM) age, weight and body mass index (BMI) was 32±4 years, 75.0±4.0 kg and 25.0±1.3 kg/m^2, respectively.
as §2
Subjects were studied on four occasions one week apart. […] Cumulative ^13CO2 excretion was also calculated. Blood was collected serially throughout the study.
Plasma was collected at −15, 0, 15, 30, 60, 90, 120, 180, 240, 300, 360 min for analysis of ^13C propionate enrichment by GC-combustion-IRMS (GC-C-IRMS). Acetate ^13C enrichment was also measured in the same analysis as a control for dietary influence on SCFA ^13C enrichment and for evidence of inter-conversion between propionate and acetate. Data were expressed as δ^13C (per mil or ‰) which represents the change in the measured ratio in parts per thousand from the internationally accepted standard carbon Vienna Pee Dee Belemnite (VPDB). Urine was analyzed for ^13C propionate by GC-C-IRMS. Urine was collected and pooled from just before consumption of the propionate ester for a period of 24 hours. Two 25 ml aliquots were collected and stored at −20° C. until analysis. Isotopic enrichment was expressed as δ^13C (‰). SCFA concentrations (mmol/L) were measured relative to an internal standard (3-methyl valerate).

[7] = 10 g, 0-420 minute post oral administration, 20 subjects
[8] = 24 weeks vs baseline, fasting blood, listed as control

inulin
Bif164 labelled cells compared to baseline ([1]; all time points (10, 24, 34, 48 h)): significantly increased
Bif164 levels compared to propionate inulin ester cultures ([1]; throughout fermentation): significantly higher
fullness ratings, average iAUC [2, 7]: 26.6±2.9
hunger ratings, average iAUC [2, 7]: −24.3±4.7
pleasantness ratings, average iAUC [2, 7]: −26.6±4.6
prospective food intake ratings, average iAUC [2, 7]: −19.9±3.6
sickness ratings, average iAUC [2, 7]: −1.6±1.4
glucose levels, average iAUC ([2]; 10 g, whole meal test): 0.28±0.12
insulin levels, average iAUC ([2]; 10 g, whole meal test): 32.5±4.7
food intake during standardised ad libitum buffet meal ([2]; 7 hours after intake of 10 g supplement, 20 subjects, mean±SEM): 1175 ± 104 kcal
body weight gained ([3]; 10 g/day, after 24 weeks): 0.38 ± 0.69 kg
breath hydrogen area under curve ([3]; 24 weeks): 5000±1480
fasting breath hydrogen ([3]; 24 weeks): 19.1±7 ppm
fasting glucose, insulin, HbA1c and triglyceride concentrations ([3]; 24 weeks): no significant effect
alanine transaminase [3, 8]: significantly reduced; also recorded: significant improvements
alkaline phosphatase [3, 8]: significantly reduced; also recorded: significant improvements
total cholesterol [3, 8]: significantly reduced; also recorded: significant improvements
subjects with substantial weight gain (≧5% baseline weight) ([3]; 24 weeks, number of subjects): 4 of 24
subjects with weight gain ≧3% baseline weight ([3]; 24 weeks, number of subjects): 6 of 24
ratio of internal adipose tissue:subcutaneous adipose tissue, within group ([3]; 24 weeks, p=0.002): significantly increased
internal adipose tissue, within group ([3]; 24 weeks, p=0.049): significantly increased
subjects with substantial weight gain (≧5% baseline weight) ([3]; 24 weeks, proportion): 17%
subjects with weight gain ≧3% baseline weight ([3]; 24 weeks, proportion): 25%
breath hydrogen area under curve ([3]; baseline): 2355±800
fasting breath hydrogen ([3]; baseline): 9±3 ppm
GLP-1 ΔAUC0-300 min ([3]; baseline (week 0)): 3441 ± 843 pmol/L
food intake at buffet lunch ([3]; baseline (week 0)): 678 ± 69 kcal
insulin response AUC0-300 min ([3]; baseline (week 0)): 9285±882 μU/mL
plasma PYY ΔAUC0-300 min ([3]; baseline (week 0)): 962 ± 869 pmol/L
glycemic response AUC0-300 min ([3]; baseline (week 0), standardized breakfast): 1600 ± 51 pmol/L
plasma PYY and GLP-1 release, week 24 vs baseline ([3]; postprandial period, within group): unaffected
GLP-1 ΔAUC0-300 min ([3]; week 24): 2278 ± 1000 pmol/L
bloating and flatulence (side effect profile) ([3]; week 24): significant increase
food intake at buffet lunch ([3]; week 24): 651 ± 64 kcal
insulin response AUC0-300 min ([3]; week 24): 8781±731 μU/mL
plasma PYY ΔAUC0-300 min ([3]; week 24): 656 ± 880 pmol/L
glycemic response AUC0-300 min ([3]; week 24, standardized breakfast): 1691 ± 54 pmol/L
reduction of food intake ([3]; week 24 vs baseline): 4.0%
insulin response, week 24 vs baseline ([3]; within group): not significantly different
postprandial glucose (glycemic) response, week 24 vs baseline ([3]; within group, listed as control): significantly greater; also recorded: significant deterioration
Ato291 labelled cells compared to baseline [4]: increased significantly
Bac303 labelled cells compared to baseline [5]: significant increases
urine 13C propionate enrichment δ13C [6]: −23.3±1.8 ‰
